ChEMBL document CHEMBL1140674, “Design and synthesis of bioactive adamantane spiro heterocycles” (Bioorg Med Chem Lett, 2007)
pEC50, pIC50: −log10 of the molar value.

Tests used:
[1] = tested on: Trypanosoma brucei; assay: Antiparasitic activity against Trypanosoma brucei 221 blood stream form at pH 7.4; type: functional, organism-based
[2] = Cytotoxicity against MDCK cells assessed as changes in cell morphology; type: cell-based, Canis lupus familiaris; details: dog
[3] = tested on: Influenza A virus; assay: Antiviral activity against influenza A/Hong Kong/7/87 (H3N2) in MDCK cells assessed as inhibition of virus-induced cytopathic effect by MTS assay; type: functional, organism-based

SMILES: C1C2CC3CC1CC(C2)C31CN1 (centres undefined)
- pIC50 [1]: < 4.52
- MCC [2]: 25 µM
- pEC50 ([3]; Influenza A virus, H3N2, MDCK): < 5.30

SMILES: CN1CC12C1CC3CC(C1)CC2C3 (centres undefined)
- MCC [2]: 23 µM
- pEC50 ([3]; Influenza A virus, H3N2, MDCK): < 5.35

SMILES: C1CC2(N1)C1CC3CC(C1)CC2C3 (centres undefined)
- MCC [2]: 250 µM
- pEC50 ([3]; Influenza A virus, H3N2, MDCK): 6.44

SMILES: C1CC2(CCN1)C1CC3CC(C1)CC2C3
- pIC50 [1]: 5.28
- IC90 [1]: 9.99 µM

SMILES: O=C1NC(=O)C2(C(=O)N1)C1CC3CC(C1)CC2C3
- pIC50 [1]: 4.70

SMILES: C1C2CC3CC1CC(C2)C31CNC1
- MCC [2]: 113 µM
- pEC50 ([3]; Influenza A virus, H3N2, MDCK): 6.48

SMILES: CN1CCC12C1CC3CC(C1)CC2C3 (centres undefined)
- pIC50 [1]: < 4.60
- MCC [2]: 50 µM
- pEC50 ([3]; Influenza A virus, H3N2, MDCK): 6.23

SMILES: CN1CCC2(CC1)C1CC3CC(C1)CC2C3
- pIC50 [1]: < 4.70

SMILES: CN1CCC2(CC1)C1CC3CC(C1)CC2C3.Cl
- MCC [2]: 4 µM
- pEC50 ([3]; Influenza A virus, H3N2, MDCK): 5.37

SMILES: C1CC2(CCN1)C1CC3CC(C1)CC2C3.Cl
- MCC [2]: 17 µM
- pEC50 ([3]; Influenza A virus, H3N2, MDCK): 6.80

SMILES: NC12CC3CC(CC(C3)C1)C2 [AMANTADINE]
- pIC50 [1]: < 3.89
- MCC [2]: > 100 µM
- pEC50 ([3]; Influenza A virus, H3N2, MDCK): 5.70

SMILES: NC(=O)c1ncn([C@@H]2O[C@H](CO)[C@@H](O)[C@H]2O)n1 [RIBAVIRIN]
- MCC [2]: 20 µM
- pEC50 ([3]; mdck): 5.06

SMILES: CC(N)C12CC3CC(CC(C3)C1)C2 (centres undefined) [RIMANTADINE]
- pIC50 [1]: 5.15
- IC90 [1]: 14 µM
- MCC [2]: > 100 µM
- pEC50 ([3]; Influenza A virus, H3N2, MDCK): 6.44
